Read-outs that look alike come from different tables or passages of the source.
Tests used:
Test in all cases: Growth inhibitory activity of compounds on BaF3 cell lines stably transfected with kinase (MTS, 48 h)
Assay type in all cases: cell-based
[1] = target: T1, various mutants of kinase EGFR (BaF3 cell lines stably transfected with kinase) (Homo sapiens, UniProt P00533)
T1 construct: other: BaF3 cells stably transfected with EGFR Δ19Del; MTS, 48 h; other: BaF3 cell line stably transfected with EGFR Δ19Del
Procedure, shortened: (§1)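 Growth is measured by MTS reduction (OD 490 nm) after 48 h compound exposure at up to 10 µM in 8 steps of 1/3. Inhibition is calculated against a 0.1% DMSO control and cell-free blank, and IC50 is derived from it.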

[2] = target: T2, various mutants of kinase EGFR (BaF3 cell lines stably transfected with kinase) (Homo sapiens, UniProt P00533, L858R)
T2 construct: expressed in transfected cells; host or cells: BaF3
Procedure, shortened: as §1

[3] = target: T3, various mutants of kinase EGFR (BaF3 cell lines stably transfected with kinase) (Homo sapiens, UniProt P00533, L858R/T790M)
T3 construct: expressed in transfected cells; host or cells: BaF3
T3 sequence (P00533 25-1210 T790M/L858R): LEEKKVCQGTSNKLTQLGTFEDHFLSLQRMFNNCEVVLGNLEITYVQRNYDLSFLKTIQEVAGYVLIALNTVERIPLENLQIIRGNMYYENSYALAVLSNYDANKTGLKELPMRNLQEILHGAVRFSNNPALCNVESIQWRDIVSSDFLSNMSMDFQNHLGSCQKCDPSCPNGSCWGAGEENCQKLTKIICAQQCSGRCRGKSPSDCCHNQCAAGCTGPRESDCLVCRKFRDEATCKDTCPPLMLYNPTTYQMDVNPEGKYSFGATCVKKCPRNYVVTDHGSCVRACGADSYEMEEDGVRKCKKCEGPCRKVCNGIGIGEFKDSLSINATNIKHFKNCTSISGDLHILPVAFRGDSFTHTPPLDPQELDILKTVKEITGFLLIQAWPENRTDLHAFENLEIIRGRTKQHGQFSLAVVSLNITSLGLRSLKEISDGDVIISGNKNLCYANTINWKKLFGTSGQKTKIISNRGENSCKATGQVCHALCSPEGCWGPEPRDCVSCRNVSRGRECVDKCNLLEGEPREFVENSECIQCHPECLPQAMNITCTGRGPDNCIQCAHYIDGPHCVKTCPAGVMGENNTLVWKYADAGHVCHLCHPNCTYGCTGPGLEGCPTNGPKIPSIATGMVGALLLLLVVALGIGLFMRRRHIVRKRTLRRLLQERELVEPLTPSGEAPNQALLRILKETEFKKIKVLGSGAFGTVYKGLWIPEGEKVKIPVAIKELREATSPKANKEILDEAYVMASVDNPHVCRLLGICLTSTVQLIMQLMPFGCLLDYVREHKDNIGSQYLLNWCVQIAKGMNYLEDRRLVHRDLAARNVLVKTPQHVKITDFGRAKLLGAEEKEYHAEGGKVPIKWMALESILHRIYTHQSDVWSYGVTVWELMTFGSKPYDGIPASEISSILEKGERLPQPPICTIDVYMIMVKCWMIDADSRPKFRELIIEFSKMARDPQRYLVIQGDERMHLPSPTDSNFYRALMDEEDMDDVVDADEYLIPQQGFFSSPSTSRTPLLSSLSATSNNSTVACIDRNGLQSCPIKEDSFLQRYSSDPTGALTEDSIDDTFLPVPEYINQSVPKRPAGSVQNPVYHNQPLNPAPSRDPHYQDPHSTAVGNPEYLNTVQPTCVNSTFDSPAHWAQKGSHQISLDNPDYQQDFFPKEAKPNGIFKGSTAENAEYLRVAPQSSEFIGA
Procedure, shortened: as §1

[4] = target: T4, various mutants of kinase EGFR (BaF3 cell lines stably transfected with kinase) (Homo sapiens, UniProt P00533, T790M/C797S, form not given)
T4 construct: other: BaF3 cells stably transfected with EGFR Δ19Del/T790M/C797S; MTS, 48; other: BaF3 cell line stably transfected with EGFR Δ19Del/T790M/C7
T4 sequence (P00533 with tags, fused parts or gaps DEL746-750/T790M/C797S, form open): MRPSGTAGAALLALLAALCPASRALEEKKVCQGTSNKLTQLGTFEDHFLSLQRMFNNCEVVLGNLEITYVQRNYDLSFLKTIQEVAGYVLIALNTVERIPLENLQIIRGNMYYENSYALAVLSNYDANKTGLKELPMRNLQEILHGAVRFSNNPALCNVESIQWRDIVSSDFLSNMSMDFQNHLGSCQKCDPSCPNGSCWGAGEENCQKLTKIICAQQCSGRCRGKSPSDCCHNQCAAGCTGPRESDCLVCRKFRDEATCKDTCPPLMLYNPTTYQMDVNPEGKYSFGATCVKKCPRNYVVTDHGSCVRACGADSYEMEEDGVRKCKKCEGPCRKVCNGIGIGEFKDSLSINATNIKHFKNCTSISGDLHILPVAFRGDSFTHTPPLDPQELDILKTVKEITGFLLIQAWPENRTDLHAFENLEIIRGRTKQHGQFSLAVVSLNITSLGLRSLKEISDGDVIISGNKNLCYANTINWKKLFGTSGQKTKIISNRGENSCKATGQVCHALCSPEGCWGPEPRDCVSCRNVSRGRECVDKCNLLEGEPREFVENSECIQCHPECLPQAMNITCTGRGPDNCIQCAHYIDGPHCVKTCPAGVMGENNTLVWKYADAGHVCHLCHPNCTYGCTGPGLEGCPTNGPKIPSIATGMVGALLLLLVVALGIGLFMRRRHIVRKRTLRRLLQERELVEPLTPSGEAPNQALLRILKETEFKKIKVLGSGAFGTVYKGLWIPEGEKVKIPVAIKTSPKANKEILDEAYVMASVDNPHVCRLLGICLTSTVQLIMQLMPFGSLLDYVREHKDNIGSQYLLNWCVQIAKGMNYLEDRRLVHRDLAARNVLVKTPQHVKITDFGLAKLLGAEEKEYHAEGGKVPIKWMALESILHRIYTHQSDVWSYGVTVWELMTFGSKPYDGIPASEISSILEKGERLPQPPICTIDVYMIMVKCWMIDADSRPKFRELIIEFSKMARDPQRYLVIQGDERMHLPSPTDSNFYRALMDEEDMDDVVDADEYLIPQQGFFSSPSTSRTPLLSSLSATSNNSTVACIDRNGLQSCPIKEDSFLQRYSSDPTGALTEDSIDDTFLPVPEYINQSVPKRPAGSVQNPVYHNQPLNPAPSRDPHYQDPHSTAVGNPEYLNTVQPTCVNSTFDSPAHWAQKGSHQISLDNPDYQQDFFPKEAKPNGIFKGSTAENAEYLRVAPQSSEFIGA
Procedure, shortened: as §1

[5] = target: T5, various mutants of kinase EGFR (BaF3 cell lines stably transfected with kinase) (Homo sapiens, UniProt P00533, T790M, form not given)
T5 construct: other: BaF3 cells stably transfected with EGFR Δ19Del/T790M; MTS, 48 h; other: BaF3 cell line stably transfected with EGFR Δ19Del/T790M; MTS, 48
T5 sequence (P00533 with tags, fused parts or gaps DEL746-750/T790M, form open): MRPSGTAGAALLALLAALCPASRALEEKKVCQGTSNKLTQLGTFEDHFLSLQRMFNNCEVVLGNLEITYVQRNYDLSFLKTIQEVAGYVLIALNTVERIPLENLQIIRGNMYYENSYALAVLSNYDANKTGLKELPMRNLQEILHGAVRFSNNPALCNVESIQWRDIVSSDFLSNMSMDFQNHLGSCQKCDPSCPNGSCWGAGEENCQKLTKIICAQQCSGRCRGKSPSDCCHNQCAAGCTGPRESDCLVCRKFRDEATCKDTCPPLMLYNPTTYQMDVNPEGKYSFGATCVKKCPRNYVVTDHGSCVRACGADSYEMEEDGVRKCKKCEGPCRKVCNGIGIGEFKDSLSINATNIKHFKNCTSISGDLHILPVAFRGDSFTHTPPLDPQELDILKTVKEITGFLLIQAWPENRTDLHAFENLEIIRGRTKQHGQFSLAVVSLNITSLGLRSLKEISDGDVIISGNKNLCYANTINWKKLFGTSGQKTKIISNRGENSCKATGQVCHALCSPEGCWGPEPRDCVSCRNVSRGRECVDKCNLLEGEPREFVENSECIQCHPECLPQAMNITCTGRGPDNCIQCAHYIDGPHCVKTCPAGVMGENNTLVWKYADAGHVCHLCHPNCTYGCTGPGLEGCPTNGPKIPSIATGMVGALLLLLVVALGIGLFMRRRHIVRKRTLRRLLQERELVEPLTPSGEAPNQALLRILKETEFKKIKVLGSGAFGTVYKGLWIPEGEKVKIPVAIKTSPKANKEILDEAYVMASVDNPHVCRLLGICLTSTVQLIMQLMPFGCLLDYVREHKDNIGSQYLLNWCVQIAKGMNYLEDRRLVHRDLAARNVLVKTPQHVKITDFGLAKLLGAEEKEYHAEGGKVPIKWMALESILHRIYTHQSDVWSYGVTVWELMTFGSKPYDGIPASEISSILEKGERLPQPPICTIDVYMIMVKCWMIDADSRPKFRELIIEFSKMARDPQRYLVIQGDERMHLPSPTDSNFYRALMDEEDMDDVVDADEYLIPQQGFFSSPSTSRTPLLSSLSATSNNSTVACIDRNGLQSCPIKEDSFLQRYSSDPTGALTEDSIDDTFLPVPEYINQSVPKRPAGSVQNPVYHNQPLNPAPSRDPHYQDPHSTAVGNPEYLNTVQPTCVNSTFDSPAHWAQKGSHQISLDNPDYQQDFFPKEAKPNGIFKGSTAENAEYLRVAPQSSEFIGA
Procedure, shortened: as §1

[6] = target: T6, various mutants of kinase EGFR (BaF3 cell lines stably transfected with kinase) (Homo sapiens, UniProt P00533, C797S/L858R/T790M)
T6 construct: expressed in transfected cells; host or cells: BaF3
T6 sequence (P00533 25-1210 T790M/C797S/L858R): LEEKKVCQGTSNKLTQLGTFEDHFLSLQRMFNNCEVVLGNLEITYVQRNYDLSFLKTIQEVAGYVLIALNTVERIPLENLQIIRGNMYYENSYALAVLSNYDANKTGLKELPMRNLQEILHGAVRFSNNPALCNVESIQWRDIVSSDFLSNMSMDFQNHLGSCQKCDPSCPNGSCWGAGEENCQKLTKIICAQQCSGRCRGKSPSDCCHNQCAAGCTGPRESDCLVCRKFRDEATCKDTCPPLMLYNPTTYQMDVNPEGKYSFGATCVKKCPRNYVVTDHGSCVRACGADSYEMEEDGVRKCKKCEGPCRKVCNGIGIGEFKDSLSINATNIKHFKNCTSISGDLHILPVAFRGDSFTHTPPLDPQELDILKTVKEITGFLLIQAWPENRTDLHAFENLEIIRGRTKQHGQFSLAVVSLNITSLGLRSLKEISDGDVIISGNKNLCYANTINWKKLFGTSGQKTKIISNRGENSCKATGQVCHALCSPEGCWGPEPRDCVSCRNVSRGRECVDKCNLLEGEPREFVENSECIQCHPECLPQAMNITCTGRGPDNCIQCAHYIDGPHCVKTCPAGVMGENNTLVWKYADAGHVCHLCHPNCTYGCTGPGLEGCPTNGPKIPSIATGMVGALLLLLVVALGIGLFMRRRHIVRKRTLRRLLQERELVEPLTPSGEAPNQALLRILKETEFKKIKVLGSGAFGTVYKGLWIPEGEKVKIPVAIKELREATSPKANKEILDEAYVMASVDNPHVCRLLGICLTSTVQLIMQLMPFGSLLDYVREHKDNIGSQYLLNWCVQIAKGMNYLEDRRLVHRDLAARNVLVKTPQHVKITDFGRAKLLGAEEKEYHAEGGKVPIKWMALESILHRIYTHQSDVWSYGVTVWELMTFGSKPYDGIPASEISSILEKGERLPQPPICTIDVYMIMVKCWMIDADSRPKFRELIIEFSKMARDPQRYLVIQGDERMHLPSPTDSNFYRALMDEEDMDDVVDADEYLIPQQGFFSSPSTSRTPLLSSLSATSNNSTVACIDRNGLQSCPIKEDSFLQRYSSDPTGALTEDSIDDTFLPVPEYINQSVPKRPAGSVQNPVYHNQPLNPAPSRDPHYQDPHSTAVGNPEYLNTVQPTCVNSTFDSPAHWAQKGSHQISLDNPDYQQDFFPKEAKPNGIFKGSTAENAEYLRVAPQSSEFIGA
Procedure, shortened: as §1

[7] = BaF3 cell line stably transfected with EGFR Δ19Del, read-out: Δ19Del growth inhibitory activity IC50
[8] = BaF3 cell line stably transfected with EGFR L858R, read-out: L858R growth inhibitory activity IC50
[9] = BaF3 cell line stably transfected with EGFR L858R/T790M, read-out: L858R/ T790M growth inhibitory activity IC50
[10] = BaF3 cell line stably transfected with EGFR Δ19Del/T790M/C797S, read-out: Δ19Del/T790M/ C797S growth inhibitory activity IC50
[11] = BaF3 cell line stably transfected with EGFR Δ19Del/T790M, read-out: Δ19Del/ T790M growth inhibitory activity IC50
[12] = BaF3 cell line stably transfected with EGFR L858R/T790M/C797S, read-out: L858R/T790M/ C797S growth inhibitory activity IC50
[13] = BaF3 cells stably transfected with EGFR Δ19Del, read-out: IC50, growth inhibition, Δ19Del
[14] = BaF3 cells stably transfected with EGFR L858R, read-out: IC50, growth inhibition, L858R
[15] = BaF3 cells stably transfected with EGFR L858R/T790M, read-out: IC50, growth inhibition, L858R/T790M
[16] = BaF3 cells stably transfected with EGFR Δ19Del/T790M/C797S, read-out: IC50, growth inhibition, Δ19Del/T790M/C797S
[17] = BaF3 cells stably transfected with EGFR Δ19Del/T790M, read-out: IC50, growth inhibition, Δ19Del/T790M
[18] = BaF3 cells stably transfected with EGFR L858R/T790M/C797S, read-out: IC50, growth inhibition, L858R/T790M/C797S

IC50 [1, 7] [nM]	IC50 [2, 8] [nM]	IC50 [3, 9] [nM]	IC50 [4, 10] [nM]	IC50 [5, 11] [nM]	IC50 [6, 12] [nM]	IC50 [1, 13] [nM]	IC50 [2, 14] [nM]	IC50 [3, 15] [nM]	IC50 [4, 16] [nM]	IC50 [5, 17] [nM]	IC50 [6, 18] [nM]	SMILES
500 to 2500	500 to 2500	50 to 500	50 to 500	500 to 2500	50 to 500							CCc1cc(Nc2nc(Nc3ccc4nccnc4c3N(C)S(C)(=O)=O)c3[nH]ccc3n2)c(OC)cc1N1CCC(N(C)C)CC1 [II-1-32]
						50 to 500	≤ 50	50 to 500	≤ 50	50 to 500	≤ 50	CCc1cc(Nc2ncc(F)c(Nc3ccc4nccnc4c3N(C)S(C)(=O)=O)n2)c(OC)cc1N1CCN(C)CC1 [Compound I-186]
						500 to 2500	50 to 500	500 to 2500	500 to 2500	500 to 2500	500 to 2500	COc1cc(N2CCC(N3CCN(C)CC3)CC2)c(Cc2ccccc2)cc1Nc1ncc(Br)c(Nc2ccc3nccnc3c2N(C)S(C)(=O)=O)n1 [Compound I-11]
≤ 50	≤ 50	≤ 50	50 to 500	≤ 50	50 to 500							COc1cc(N2CCC(N3CCN(C)CC3)CC2)c(C)cc1Nc1nccc(Nc2ccc3nccnc3c2N(C)S(C)(=O)=O)n1 [Compound I-340]
						50 to 500	≤ 50	≤ 50	≤ 50	≤ 50	≤ 50	CCc1cc(Nc2ncc(Br)c(Nc3ccc4nccnc4c3N(CC)S(C)(=O)=O)n2)c(OC)cc1N1CCC(N(C)C)C1 (stereo not drawn) [Compound I-98]
50 to 500	≤ 50	≤ 50	≤ 50	≤ 50	≤ 50							CN1CCN(C2CCN(c3ccc(Nc4ncc(Br)c(Nc5ccc6nccnc6c5N(C)S(C)(=O)=O)n4)c(F)c3F)CC2)CC1 [Compound I-353]
						50 to 500	50 to 500	50 to 500	50 to 500	50 to 500	50 to 500	COc1cc(N2CCC(N3CCN(C)CC3)CC2)ccc1Nc1ncc(Cl)c(Nc2ccc3nccnc3c2N(C)S(=O)(=O)C2CC2)n1 [Compound I-237]
						50 to 500	50 to 500	50 to 500	50 to 500	50 to 500	50 to 500	COc1cc(N2CCC(N3CCN(C)CC3)CC2)ccc1Nc1ncc(F)c(Nc2ccc3nccnc3c2N(C)S(C)(=O)=O)n1 [Compound I-24]
50 to 500	50 to 500	≤ 50	≤ 50	50 to 500	≤ 50							COc1ccc(N2CCC(O)CC2)cc1Nc1ncc(Br)c(Nc2ccc3nccnc3c2N(C)S(=O)(=O)C(C)C)n1 [Compound I-376]
						500 to 2500	500 to 2500	500 to 2500	50 to 500	500 to 2500	500 to 2500	COc1nc(N2CCC(N3CCN(C)CC3)CC2)ccc1Nc1ncc(F)c(Nc2ccc3nccnc3c2N(C)S(C)(=O)=O)n1 [Compound I-175]
						≤ 50	≤ 50	≤ 50	≤ 50	≤ 50	≤ 50	CCc1cc(Nc2ncc(Br)c(Nc3ccc4nccnc4c3N(C)S(C)(=O)=O)n2)c(OC)cc1N1CCN(C)CC1 [Compound I-15]
50 to 500	50 to 500	50 to 500	≤ 50	≤ 50	≤ 50							CCc1cc(Nc2nc(Nc3ccc4nccnc4c3N(C)S(C)(=O)=O)c3cc[nH]c3n2)c(OC(F)(F)F)cc1N1CCC(N2CCN(C)CC2)CC1 [II-2-8]
≤ 50	≤ 50	≤ 50	≤ 50	≤ 50	≤ 50							COc1ccc(N2CCC(O)CC2)cc1Nc1ncc(Br)c(Nc2ccc3nccnc3c2N(C)S(=O)(=O)C2CC2)n1 [Compound I-375]
50 to 500	50 to 500	50 to 500	500 to 2500	50 to 500	50 to 500							CCOc1cnc(Nc2cc(CC)c(N3CCC(N4CCN(C)CC4)CC3)nc2OC)nc1Nc1ccc2nccnc2c1N(C)S(C)(=O)=O [Compound I-338]
50 to 500	50 to 500	≤ 50	≤ 50	≤ 50	≤ 50							C=Cc1cc(Nc2nc(Nc3ccc4nccnc4c3N(C)S(C)(=O)=O)c3cc[nH]c3n2)c(OC(F)(F)F)cc1N1CCC(N2CCN(C)CC2)CC1 [II-2-9]
500 to 2500	500 to 2500	50 to 500	500 to 2500	500 to 2500	500 to 2500							COc1cc(N2CCC(N3CCN(C)CC3)CC2)c(C)cc1Nc1nc(Nc2ccc3nccnc3c2N(C)S(C)(=O)=O)c2[nH]ccc2n1 [II-1-19]
						50 to 500	≤ 50	≤ 50	≤ 50	≤ 50	≤ 50	COc1cc(N2CCN(C)CC2)c(C)cc1Nc1ncc(Br)c(Nc2ccc3nccnc3c2N(C)S(C)(=O)=O)n1 [Compound I-12]
						50 to 500	50 to 500	50 to 500	≤ 50	≤ 50	50 to 500	C=Cc1cc(Nc2ncc(Br)c(Nc3ccc4nccnc4c3N(C)S(=O)(=O)C3CC3)n2)c(OC(F)(F)F)cc1N1CCC(N2CCN(C)CC2)CC1 [Compound I-219]
50 to 500	50 to 500	≤ 50	50 to 500	≤ 50	50 to 500							CCc1cc(Nc2ncc(C(C)C)c(Nc3ccc4nccnc4c3N(C)S(C)(=O)=O)n2)c(OC)nc1N1CCC(N2CCN(C)CC2)CC1 [Compound I-328]
						≤ 50	≤ 50	≤ 50	≤ 50	≤ 50	≤ 50	CCc1cc(Nc2ncc(Cl)c(Nc3ccc4nccnc4c3N(C)S(C)(=O)=O)n2)c(OC)cc1N1CCC(N(C)C)C1 (stereo not drawn) [Compound I-174]
						50 to 500	50 to 500	50 to 500	≤ 50	50 to 500	≤ 50	COc1cc(N2CCC(N3CCN(C)CC3)CC2)c(CC2CC2)cc1Nc1ncc(Br)c(Nc2ccc3nccnc3c2N(C)S(=O)(=O)C2CC2)n1 [Compound I-220]
≤ 50	≤ 50	≤ 50	≤ 50	≤ 50	≤ 50							COc1ccc(N2CCC(O)CC2)cc1Nc1ncc(Br)c(Nc2ccc3nccnc3c2N(C2CC2)S(C)(=O)=O)n1 [Compound I-380]
50 to 500	50 to 500	≤ 50	≤ 50	≤ 50	≤ 50							CCc1cc(Nc2nc(Nc3ccc4nccnc4c3N(C)S(C)(=O)=O)c3cc[nH]c3n2)c(OC)nc1N1CCC(N2CCN(C)CC2)CC1 [II-2-7]
						≤ 50	≤ 50	≤ 50	≤ 50	≤ 50	≤ 50	COc1cc(N2CCC(N(C)C)C2)c(C)cc1Nc1ncc(Cl)c(Nc2ccc3nccnc3c2N(C)S(C)(=O)=O)n1 (stereo not drawn) [Compound I-173]
500 to 2500	50 to 500	50 to 500	50 to 500	50 to 500	50 to 500							CCc1cc(Nc2ncc(Cl)c(Nc3ccc4nccnc4c3N(C)S(C)(=O)=O)n2)c(OC)cc1C(=O)N1CCC(N2CCN(C)CC2)CC1 [Compound I-358]

Reference: patent US20230310428A1, “EGFR INHIBITOR AND PREPARATION METHOD AND USE THEREOF” (HONGYUN BIOTECH CO., LTD., priority 2020, published 2023)
